Data from US6358491B1, “Somatostatin analogs” (Berlex Laboratories, Inc., priority 1999, dated 2002).
Where two headings read alike, the source gives them in different places. *1 amine or outer side, *2 acyl side, *3 side chain or, on linkers, in order; H or OH if unused. Where a SMILES comes first, the peptide text is derived from it. Bridges are numbered along the chain shown (N, C = ends). Roman numbers before positions name the chains, in order. [ ]: non-standard residue; d: D form. ξ: configuration not given here. Phe(4-NH2) = Nc1ccc(C[C@H](N)C(=O)O)cc1; NMehCys = CN[C@@H](CCS)C(=O)O; Thr(3ξ) = CC(O)[C@H](N)C(=O)O; Dap = NC[C@H](N)C(=O)O; X1 = O=C(C[*:1])[*:2]

Tests used:
[1] = tested on: SSTRs, NCI-H69 membranes; test: [125I]SST-14 binding to NCI-H69 cell membranes (SSTR affinity); set-up: species or system human; settings: inhibition of [125I]SST-14 binding, two-site fit
Protocol: (§1) [^125I-Tyr^11] somatostatin-14 ([^125I]SST-14) was obtained from Amersham. Unlabeled somatostatin-14 was purchased either from BACHEM (Torrance, Calif.) or from Sigma Chemical Co. (St. Louis, Mo.). Protease inhibitors, leupeptin, aprotinin, bacitracin, and benzamidine and other reagents were obtained from Sigma. Protease inhibitors were prepared in dimethylsulfoxide (DMSO) at a concentration 500×higher than the final assay concentration. The prepared protease solution was stored at −20° C. and diluted with the buffer solution before use.
Membrane preparations used in these studies were prepared from two commercially available tumor cell lines, the human small cell lung cancer cell line, NCI-H69, and the rat pancreatic tumor cell line, AR42J, obtained from American Type Culture Collection (ATCC) (Manassas, Va.). NCI-H69 cells were maintained by serial passage in RPMI 1640 with 10% fetal calf serum. AR42J cells were maintained in F-12K medium containing 20% fetal calf serum. Cells in culture flasks were incubated at 37° C. with 5% CO2 in air atmosphere following the recommendations of the “Product Sheet” from ATCC.
Cultured cells were first detached from plates with phosphate-buffered saline, pH 7.4, containing 2 mM EDTA, and centrifuged at 1,500×g for 10 min. Cells were then resuspended in 5-10 mL of the homogenization buffer (1 mM sodium bicarbonate, pH 7.4, 1 mM EDTA, 1 mM EGTA, 2.5 mM DTT, 5 μg/mL leupeptin, 5 μg/mL aprotinin, 100 μg/mL bacitracin, 100 μg/mL benzamidine) for 10 min on ice. The cells were lysed for 30 sec twice in a polytron with a setting at 5. The lysate was centrifuged at 1,000×g for 10 min at 4° C. The supernatant was centrifuged at 40,000×g for 20 min at 4° C. This step was repeated twice with the homogenization buffer in the absence of protease inhibitors. The pellet was then resuspended at 1-5 mg membrane protein/mL in 25 mM Tris, pH 7.4 without the addition of protease inhibitors and the membranes were stored at −80° C. before use. Membrane protein concentration was determined spectroscopically using the bicinchonic acid (BCA) protein assay kit (Pierce Chemical Inc. (Rockford, Ill.).
All [^125I]SST-14 binding assays were performed in 0.5 mL binding buffer containing 50 mM HEPES, pH 7.5, 10 mM MgCl2, 0.25% BSA (w/v) containing protease inhibitors (same as above) and incubated at 37° C. for 45 minutes. After incubation, samples were kept at 4° C. and rapidly filtered under vacuum through a Whatman GF/B glass fiber filter with a 12-well harvester (Skatron Instruments Inc., Sterling, Va.). The filter was washed for 9 seconds with cold 50 mM HEPES, pH 7.5, 10 mM MgCl2, 0.25% BSA (w/v). Thirty-five […] of [^125I]SST-14 from Amersham was used in each tube. Peptides were solubilized in DMSO and serially diluted with DMSO. Five μL of peptide in DMSO was used to obtain the final concentration. DMSO (5 μL) was added to the tube without the addition of any peptide or unlabeled SST-14, so that each tube contained 1% DMSO. Non-specific binding was defined as the binding of [^125I]SST-14 which was not displaceable with an excess of unlabeled SST-14 at a concentration of 1×10^−6 M. The bound [^125I]SST-14 without or with excess unlabeled SST-14 (1×10^−6 M) was defined as total binding and nonspecific binding, respectively. The difference between total and nonspecific binding was defined as specific binding. The percent inhibition (% Inh) by peptide was expressed as
% Inh=(total binding−total binding in the presence of peptide)/specific binding×100%
Inclusion of protease inhibitors in homogenizing medium as well as assay buffer is essential to maintain the integrity of both [^125I]SST-14 and somatostatin analogs for the receptor binding assay and to obtain optimal specific binding. The highest specific binding was observed when MgCl2 (10 mM) was included. Membranes were finally resuspended in a sodium-free medium and receptor binding assays were performed in the absence of sodium ions. […]

[2] = tested on: SSTRs, AR42J cell membranes; test: [125I]SST-14 binding to AR42J cell membranes (SSTR affinity); set-up: species or system rat; settings: inhibition of [125I]SST-14 binding; two-site fit; read-out: IC50 Values for AR42J Cell Membranes (first value)
Protocol: as §1
Membrane preparations used in these studies were prepared from two commercially available tumor cell lines, the human small cell lung cancer cell line, NCI-H69, and the rat pancreatic tumor cell line, AR42J, obtained from American Type Culture Collection (ATCC) (Manassas, Va.). […]
Cultured cells were first detached from plates with phosphate-buffered saline, pH 7.4, containing 2 mM EDTA, and centrifuged at 1,500×g for 10 min. […] Membrane protein concentration was determined spectroscopically using the bicinchonic acid (BCA) protein assay kit (Pierce Chemical Inc. (Rockford, Ill.).
All [^125I]SST-14 binding assays were performed in 0.5 mL binding buffer containing 50 mM HEPES, pH 7.5, 10 mM MgCl2, 0.25% BSA (w/v) containing protease inhibitors (same as above) and incubated at 37° C. for 45 minutes. […] The percent inhibition (% Inh) by peptide was expressed as […]

[3] = Biodistribution of 99mTc-labeled compounds in nude mice with AR42J tumor xenografts; type: in vivo; settings: nude, mouse, iv, total radioactivity, 99mTc-labeled compound, 90 minutes post-injection; for tissue uptake dose at 1.5 h: i.v.
Protocol: (§2) Rat pancreatic AR42J cells (ATCC, Rockville, Md., USA) were grown in Modified Ham's F12K medium (Cat. No. N-3520, Sigma, St. Louis, Mo., USA) containing 20% fetal bovine serum (FCS) (Cat. No. 1224, Lot No. 9702058, Sigma, St. Louis, Mo., USA) under sterile conditions in 95% humidity and 5% CO2. At a density of approximately 10×10^6 cells per T150 flask, the cells were harvested with trypsin and collected by centrifugation at 2400 rpm (800×g) for 15 minutes in a benchtop centrifuge (IEC Centra-8 tabletop centrifuge, International Equipment Company, Needham, Mass., USA). The cells were resuspended in medium containing 20% FCS for implantation.
(§3) Six female nude mice (CrlLNU/NU-nuBR, 6-8 weeks old) were injected subcutaneously into the right flank with tumor cells (2×10^7/100 μL) in 20% matrigel (Collaborative Biomedical Products, Chicago, Ill., USA). Fourteen days after inoculation tumors were visible in all animals. Three weeks after inoculation, tumors were aseptically dissected, minced and implanted into 60 nude mice using a trochar. The tumor xenografts from the second passage were used for biodistribution studies.
(§4) A dose of approximately 50-100 μCi ^99mTc-labeled compound/mouse was injected intravenously in a total volume of 100 μL. Mice were sacrificed 90 minutes post-injection by decapitation and the trunk blood was collected. Tumors (1 to 3 per mouse), liver, gastrointestinal tract, kidneys, and samples of muscle from both legs (quadriceps femoralis) were collected, weighed, and counted for radioactivity.

[4] = tested on: AR42J tumor xenografts; test: as above; type: in vivo; settings: 99mTc-labeled compound, 90 minutes post-injection
Protocol: as §2, §3, §4

For `CC(O)[C@H](NC(=O)[C@H](CS)NC(=O)[C@H](Cc1ccc(N)cc1)NC(=O)[C@@H](N)CNC(=O)CSCC[C@H]1C(=O)N[C@@H](Cc2ccc(O)cc2)C(=O)N[C@H](Cc2c[nH]c3ccccc23)C(=O)N[C@@H](CCCCN)C(=O)N[C@@H](C(C)O)C(=O)N[C@@H](Cc2ccccc2)C(=O)N1C)C(=O)N[C@@H](CO)C(=O)O` (stereo partly drawn) [cyclo-Tyr-D-Trp-Lys-Thr-Phe-(N—CH3)Hcy(CH2CO-β-Dap-Phe(4—NH2)-Cys-Thr-Ser)] (I: cyclo(F[NMehCys]Y[dW]K[Thr(3ξ)]) / II: H-[Dap][Phe(4-NH2)]C[Thr(3ξ)]S-OH; linker I:2-II:1 via X1), the IC50 ([1]; read-out: IC50 Values for Uncomplexed Compounds, NCI-H69 (first value)) was 0.201 nM, the IC50 ([1]; read-out: IC50 Values for Uncomplexed Compounds, NCI-H69 (second value)) was 8.91 nM and the IC50 [2] was 0.433 nM. It also gave a tissue uptake dose at 1.5 h ([3]; gastrointestinal tract, read-out: GI) of 8 %ID, a tissue uptake at 1.5 h ([3]; kidneys) of 4.8 %ID/g and a tissue uptake dose at 1.5 h ([3]; spleen, read-out: Spleen) of 0.21 %ID. The dose excreted at 1.5 h ([3]; urine) was 59%, the TUMOR ([4]; i.v.) was 24.7 %ID/g and the “T:B” value ([4]; tumor to blood ratio) was 29. The “T:M” value ([4]; tumor to muscle ratio) was 127.
